How the values were obtained:
Type in all cases: functional
[1] = tested on: Mycobacterium tuberculosis; experiment: Antimycobacterial activity against Mycobacterium tuberculosis H37Rv harboring Q172P mutant by microplate alamar blue assay
[2] = tested on: Mycobacterium tuberculosis; experiment: Antimycobacterial activity against Mycobacterium tuberculosis H37Rv harboring G262S mutant by microplate alamar blue assay
[3] = tested on: Mycobacterium tuberculosis; experiment: Antimycobacterial activity against Mycobacterium tuberculosis H37Rv harboring D251N mutant by microplate alamar blue assay

Measured: MIC

Nc1ncnc2c1c(I)cn2[C@@H]1O[C@H](CO)[C@@H](O)[C@H]1O [IODOTUBERCIDIN]
>100 µM: all assays above

Source: ChEMBL document CHEMBL4393679, “Structure-Guided Drug Design of 6-Substituted Adenosine Analogues as Potent Inhibitors of Mycobacterium tuberculosis Adenosine Kinase” (J Med Chem, 2019)
